According to patent US4201782A, “Thiadiazolyl cephalosporin analogs” (Shionogi & Co., Ltd., priority 1977, dated 1980):

Assays:
[1] = test system: S. aureus Smith; test: MIC by agar-dilution, S. aureus Smith; type: cell-based; settings: Staphylococcus aureus, as sodium salt, pH 7.0, inoculum 10^6, read-out: Minimal Inhibitory Concentration
[2] = test system: K. pneumoniae SHIONOGI; test: MIC by agar-dilution, K. pneumoniae SHIONOGI; type: cell-based; settings: Klebsiella pneumoniae, as sodium salt, pH 7.0, inoculum 10^6, read-out: Minimal Inhibitory Concentration
[3] = test system: E. coli EC-14; test: MIC by agar-dilution, E. coli EC-14; type: cell-based; settings: Escherichia coli, EC14, as sodium salt, pH 7.0, inoculum 10^6, read-out: Minimal Inhibitory Concentration
[4] = test system: E. coli 73; test: MIC by agar-dilution, E. coli 73; type: cell-based; settings: Escherichia coli, as sodium salt, pH 7.0, inoculum 10^6, read-out: Minimal Inhibitory Concentration
[5] = test system: P. mirabilis PR-4; test: MIC by agar-dilution, P. mirabilis PR-4; type: cell-based; settings: Proteus mirabilis, PR4, as sodium salt, pH 7.0, inoculum 10^6, read-out: Minimal Inhibitory Concentration
[6] = test system: S. pneumoniae I; test: MIC by agar-dilution, S. pneumoniae I; type: cell-based; settings: Streptococcus pneumoniae, as sodium salt, pH 7.0, inoculum 10^6, read-out: Minimal Inhibitory Concentration
[7] = test system: P. vulgaris CN-329; test: MIC by agar-dilution, P. vulgaris CN-329; type: cell-based; settings: Proteus vulgaris, CN329, as sodium salt, pH 7.0, inoculum 10^6, read-out: Minimal Inhibitory Concentration
[8] = test system: E. coli 377; test: MIC by agar-dilution, E. coli 377; type: cell-based; settings: Escherichia coli, as sodium salt, pH 7.0, inoculum 10^6, read-out: Minimal Inhibitory Concentration
[9] = test system: S. aureus C-14; test: MIC by agar-dilution, S. aureus C-14; type: cell-based; settings: Staphylococcus aureus, C14, as sodium salt, pH 7.0, inoculum 10^6, read-out: Minimal Inhibitory Concentration
[10] = test system: E. cloacae 233; test: MIC by agar-dilution, E. cloacae 233; type: cell-based; settings: Enterobacter cloacae, as sodium salt, pH 7.0, inoculum 10^6, read-out: Minimal Inhibitory Concentration
[11] = test system: S. aureus 077; test: MIC by agar-dilution, S. aureus 077; type: cell-based; settings: Staphylococcus aureus, as sodium salt, pH 7.0, inoculum 10^6, read-out: Minimal Inhibitory Concentration
[12] = test system: E. coli NIHJ JC-2; test: MIC by agar-dilution, E. coli NIHJ JC-2; type: cell-based; settings: Escherichia coli, NIHJJC2, as sodium salt, pH 7.0, inoculum 10^6, read-out: Minimal Inhibitory Concentration
[13] = test system: S. pyogenes C-203; test: MIC by agar-dilution, S. pyogenes C-203; type: cell-based; settings: Streptococcus pyogenes, C203, as sodium salt, pH 7.0, inoculum 10^6, read-out: Minimal Inhibitory Concentration
[14] = test system: P. aeruginosa 25619; test: MIC by agar-dilution, P. aeruginosa 25619; type: cell-based; settings: Pseudomonas aeruginosa, as sodium salt, pH 7.0, inoculum 10^6, read-out: Minimal Inhibitory Concentration
[15] = test system: K. pneumoniae 363; test: MIC by agar-dilution, K. pneumoniae 363; type: cell-based; settings: Klebsiella pneumoniae, as sodium salt, pH 7.0, inoculum 10^6, read-out: Minimal Inhibitory Concentration
[16] = test system: S. marcescens 13880; test: MIC by agar-dilution, S. marcescens 13880; type: cell-based; settings: Serratia marcescens, as sodium salt, pH 7.0, inoculum 10^6, read-out: Minimal Inhibitory Concentration
[17] = test system: P. vulgaris No. 3; test: MIC by agar-dilution, P. vulgaris No. 3; type: cell-based; settings: Proteus vulgaris, as sodium salt, pH 7.0, inoculum 10^6, read-out: Minimal Inhibitory Concentration
[18] = test system: P. morganii No. 9; test: MIC by agar-dilution, P. morganii No. 9; type: cell-based, Proteus morganii; settings: Morganella morganii, as sodium salt, pH 7.0, inoculum 10^6, read-out: Minimal Inhibitory Concentration
[19] = test system: E. cloacae 13047; test: MIC by agar-dilution, E. cloacae 13047; type: cell-based; settings: Enterobacter cloacae, as sodium salt, pH 7.0, inoculum 10^6, read-out: Minimal Inhibitory Concentration
[20] = test system: S. aureus 209P JC-1; test: MIC by agar-dilution, S. aureus 209P JC-1; type: cell-based; settings: Staphylococcus aureus, as sodium salt, pH 7.0, inoculum 10^6, read-out: Minimal Inhibitory Concentration
[21] = test system: E. coli H; test: MIC by agar-dilution, E. coli H; type: cell-based; settings: Escherichia coli, as sodium salt, pH 7.0, inoculum 10^6, read-out: Minimal Inhibitory Concentration

MIC [1]	MIC [2]	MIC [3]	MIC [4]	MIC [5]	MIC [6]	MIC [7]	MIC [8]	MIC [9]	MIC [10]	MIC [11]	MIC [12]	MIC [13]	MIC [14]	MIC [15]	MIC [16]	MIC [17]	MIC [18]	MIC [19]	MIC [20]	Structure (SMILES)	also measured
25 µg/mL	0.78 µg/mL	0.78 µg/mL	6.25 µg/mL	0.39 µg/mL	3.13 µg/mL	0.39 µg/mL	1.56 µg/mL	25 µg/mL	1.6 µg/mL	25 µg/mL	0.78 µg/mL	3.13 µg/mL	25 µg/mL	0.39 µg/mL	3.13 µg/mL	0.78 µg/mL	0.78 µg/mL	50 µg/mL	12.5 µg/mL	CO[C@@]1(NC(=O)C(C(=O)O)c2ccc(O)cc2)C(=O)N2C(C(=O)O)=C(CSc3nnc(C)s3)CO[C@@H]21 (stereo partly drawn) [Compound (1), 7α-methoxy-7β-(α-p-hydroxyphenyl-α-carboxyacetamido)-3-(2-methyl-1,3,4-thiadiazol-5-yl)thiomethyl-1-dethia-1-oxa-3-cephem-4-carboxylic acid]	MIC [21]: 0.2 µg/mL
12.5 µg/mL	0.39 µg/mL	0.39 µg/mL	3.13 µg/mL	0.39 µg/mL	6.25 µg/mL	0.78 µg/mL	0.78 µg/mL	25 µg/mL	6.25 µg/mL	25 µg/mL	0.39 µg/mL	3.13 µg/mL	25 µg/mL	0.39 µg/mL	1.56 µg/mL	0.78 µg/mL	0.78 µg/mL	25 µg/mL	12.5 µg/mL	CO[C@@]1(NC(=O)C(C(=O)O)c2ccc(O)cc2)C(=O)N2C(C(=O)O)=C(CSc3nncs3)CO[C@@H]21 (stereo partly drawn) [Compound (2), 7α-methoxy-7β-(α-p-hydroxyphenyl-α-carboxyacetamido)-3-(1,3,4-thiadiazol-5-yl)thiomethyl-1-dethia-1-oxa-3-cephem-4-carboxylic acid]	MIC [21]: 0.2 µg/mL
6.25 µg/mL	0.2 µg/mL	0.2 µg/mL	1.56 µg/mL	0.1 µg/mL	3.13 µg/mL	0.1 µg/mL	0.78 µg/mL	6.25 µg/mL	12.5 µg/mL	6.25 µg/mL	0.39 µg/mL	0.78 µg/mL	25 µg/mL	0.78 µg/mL	1.56 µg/mL	0.39 µg/mL	0.2 µg/mL	25 µg/mL	6.25 µg/mL	CO[C@@]1(NC(=O)C(C(=O)O)c2ccsc2)C(=O)N2C(C(=O)O)=C(CSc3nnc(C)s3)CO[C@@H]21 (stereo partly drawn) [Compound (3), 7α-methoxy-7β-[α-(3-thienyl)-α-carboxyacetamido]-3-(2-methyl-1,3,4-thiadiazol-5-yl)thiomethyl-1-dethia-1-oxa-3-cephem-4-carboxylic acid]	MIC [21]: 0.05 µg/mL
6.25 µg/mL	0.2 µg/mL	0.1 µg/mL	0.78 µg/mL	0.2 µg/mL	6.25 µg/mL	0.2 µg/mL	0.39 µg/mL	6.25 µg/mL	6.25 µg/mL	6.25 µg/mL	0.2 µg/mL	3.13 µg/mL	25 µg/mL	0.2 µg/mL	0.39 µg/mL	0.39 µg/mL	0.2 µg/mL	12.5 µg/mL	6.25 µg/mL	CO[C@@]1(NC(=O)C(C(=O)O)c2ccsc2)C(=O)N2C(C(=O)O)=C(CSc3nncs3)CO[C@@H]21 (stereo partly drawn) [Compound (4), 7α-methoxy-7β-[α-(3-thienyl)-α-carboxyacetamido]-3-(1,3,4-thiadiazol-5-yl)thiomethyl-1-dethia-1-oxa-3-cephem-4-carboxylic acid]	MIC [21]: 0.1 µg/mL
